Results as given in patent publication US20150105252A1, “SUBSTITUTED PYRAZOLES AS HERBICIDES” (E I DU PONT DE NEMOURS AND COMPANY, priority 2013, published 2015).

What was measured:
velvetleaf [1] = assay: Test A preemergence; type: in vivo, Abutilon theophrasti; conditions: preemergence; for Velvetleaf plant response rating (0 to 100 scale): 125 g ai/ha, visual injury approx. 10 days after treatment; for Velvetleaf plant response rating: 500 g ai/ha, visual injury after approx. 10 days, 0 to 100 scale (0 no effect, 100 complete control)
Outline: (§1)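 Greenhouse test in loam soil/sand blend; compounds formulated in non-phytotoxic solvent with surfactant, applied as preemergence directed soil spray or postemergence to plants 2–10 cm tall at one- to two-leaf stage. Injury rated visually versus untreated controls after approximately 10 days on a 0 (no effect) to 100 (complete control) scale.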

corn = assay: Test A preemergence; type: in vivo, Zea mays; conditions: preemergence; for Corn plant response rating (0 to 100 scale): 125 g ai/ha, visual injury approx. 10 days after treatment; for Corn plant response rating: 500 g ai/ha, visual injury after approx. 10 days, 0 to 100 scale (0 no effect, 100 complete control)
Outline: as §1

velvetleaf [2] = assay: Test C preemergence; type: in vivo, Abutilon theophrasti; conditions: preemergence; for Plant response rating, Velvetleaf: 125 g ai/ha, scale 0 to 100, 0 = no effect, 100 = complete control
Excerpt: (§2) Seeds of plant species selected from blackgrass (Alopecurus myosuroides), ryegrass, Italian (Italian ryegrass, Lolium multiflorum), wheat (winter wheat, Triticum aestivum), galium (catchweed bedstraw, Galium aparine), corn (Zea mays), crabgrass, large (large crabgrass, Digitaria sanguinalis), foxtail, giant (giant foxtail, Setaria faberii), johnsongrass (Sorghum halepense), lambsquarters (Chenopodium album), morningglory (Ipomoea coccinea), nutsedge, yellow (yellow nutsedge, Cyperus esculentus), pigweed (redroot pigweed, Amaranthus retroflexus), ragweed (common ragweed, Ambrosia elation), soybean (Glycine max), barnyardgrass (Echinochloa crus-galli), oilseed rape (Brassica napus), waterhemp (common waterhemp, Amaranthus rudis), oat, wild (wild oat, Avena fatua), kochia (Kochia scoparia), Surinam grass (Brachiaria decumbens), foxtail, green (green foxtail, Setaria viridis), goosegrass (Eleusine indica), bromegrass, downy (downy bromegrass, Bromus tectorum), nightshade (eastern black nightshade, Solanum ptycanthum), cocklebur (common cocklebur, Xanthium strumarium), cupgrass, woolly (woolly cupgrass, Eriochloa villosa), bermudagrass (Cynodon dactylon), sunflower, (common oilseed sunflower, Helianthus annuus), Russian thistle (Salsola kali), and velvetleaf (Abutilon theophrasti) were planted into a blend of loam soil and sand and treated preemergence with test chemicals formulated in a non-phytotoxic solvent mixture which included a surfactant.
(§3) At the same time, plants selected from these crop and weed species and also chickweed (common chickweed, Stellaria media), canarygrass (littleseed canarygrass, Phalaris minor), and deadnettle (henbit deadnettle, Lamium amplexicaule), were planted in pots containing Redi-Earth® planting medium (Scotts Company, 14111 Scottslawn Road, Marysville, Ohio 43041) comprising spaghnum peat moss, vermiculite, wetting agent and starter nutrients and treated with postemergence applications of test chemicals formulated in the same manner. Plants ranged in height from 2 to 18 cm (1- to 4-leaf stage) for postemergence treatments. Treated plants and controls were maintained in a greenhouse for 13 to 15 days, after which time all species were compared to controls and visually evaluated. Plant response ratings, summarized in Table C, are based on a scale of 0 to 100 where 0 is no effect and 100 is complete control. A dash (-) response means no test result.

rice = assay: Test B flood; type: in vivo, Oryza sativa; conditions: 250 g ai/ha, visual rating on 0 to 100 scale (0 no effect, 100 complete control), 13 to 15 days
Outline: (§4)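 Greenhouse assay lasting 13 to 15 days. Treatment was into water flooding pots 3 cm deep, at the 2-leaf stage, with that level sustained afterwards. Scores compare treated with control plants visually, 100 denoting complete control and 0 no effect; a dash marks no test result.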

foxtail, giant = assay: Test A preemergence; type: in vivo, Setaria faberii; conditions: preemergence; for Foxtail, Giant plant response rating (0 to 100 scale): 125 g ai/ha, visual injury approx. 10 days after treatment; for Foxtail, Giant plant response rating: 500 g ai/ha, visual injury after approx. 10 days, 0 to 100 scale (0 no effect, 100 complete control)
Outline: as §1

crabgrass, large = assay: Test C preemergence; type: in vivo, Digitaria sanguinalis; conditions: preemergence; for Plant response rating, Crabgrass, Large: 125 g ai/ha, scale 0 to 100, 0 = no effect, 100 = complete control
Outline: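 In this greenhouse assay, seeded soil (loam plus sand) or emerged seedlings in peat-vermiculite medium were treated with formulated compound. Roughly two weeks later (13–15 days), each species was scored visually relative to controls, from 0 for no effect to 100 for complete control.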

wheat = assay: Test C preemergence; type: in vivo, Triticum aestivum; conditions: preemergence; for Plant response rating, Wheat: 125 g ai/ha, scale 0 to 100, 0 = no effect, 100 = complete control
Excerpt: as §2, §3

pigweed = assay: Test A postemergence; type: in vivo, Amaranthus retroflexus
Outline: as §1

sedge, umbrella = assay: Test B flood; type: in vivo, Cyperus difformis; conditions: 250 g ai/ha, visual rating on 0 to 100 scale (0 no effect, 100 complete control), 13 to 15 days
Outline: as §4

velvetleaf [3] = assay: Test A postemergence; type: in vivo, Abutilon theophrasti
Outline: as §1

[4] = 31 g ai/ha, visual rating, scale 0 to 100 (0 no effect, 100 complete control), 13 to 15 days
[5] = 62 g ai/ha, scale 0 to 100 (0 no effect, 100 complete control), 13 to 15 days
[6] = 250 g ai/ha, scale 0 to 100, 0 is no effect, 100 is complete control
[7] = Postemergence, 500 g ai/ha, 0 to 100 scale (0 no effect, 100 complete control)
[8] = postemergence, 125 g ai/ha, about 10 days, visual rating on 0 to 100 scale (0 no effect, 100 complete control)

SMILES | Velvetleaf plant response rating (0 to 100 scale) (velvetleaf [1]) | Velvetleaf plant response rating (velvetleaf [1]) | Corn plant response rating (0 to 100 scale) (corn) | Corn plant response rating (corn) | Velvetleaf plant response rating (velvetleaf [2]; [4]) | Velvetleaf plant response rating (velvetleaf [2]; [5]) | Plant response rating, Velvetleaf (velvetleaf [2]; 13 to 15 days) | Velvetleaf plant response rating (velvetleaf [2]; [6]) | Plant response rating, Rice (rice) | Foxtail, Giant plant response rating (0 to 100 scale) (foxtail, giant) | Foxtail, Giant plant response rating (foxtail, giant) | Crabgrass, Large plant response rating (crabgrass, large; [4]) | Crabgrass, Large plant response rating (crabgrass, large; [5]) | Plant response rating, Crabgrass, Large (crabgrass, large; 13 to 15 days) | Crabgrass, Large plant response rating (crabgrass, large; [6]) | Wheat plant response rating (wheat; [4]) | Wheat plant response rating (wheat; [5]) | Plant response rating, Wheat (wheat; 13 to 15 days) | Wheat plant response rating (wheat; [6]) | Pigweed plant response rating (pigweed; [7]) | also measured
O=C(NC1CC1)c1cc(CCF)n(Cc2ccnc(C(F)(F)F)c2)n1 [Compound 176] | 50 | 90 | 10 | 90 | 30 | 75 | 90 | 100 | 0 | 90 | 100 | 98 | 95 | 100 | 100 | 0 | 0 | 5 | 85 | 100 | Pigweed plant response rating (pigweed; [8]): 100; Plant response rating, Sedge, Umbrella (sedge, umbrella): 80; Velvetleaf plant response rating (velvetleaf [3]; [7]): 90; Velvetleaf plant response rating (velvetleaf [3]; [8]): 40
O=C(NCC(F)(F)F)c1cc(CCF)n(Cc2ccnc(C(F)(F)F)c2)n1 [Compound 175] | 40 | 100 | 50 | 80 | 55 | 98 | 100 | 100 | 25 | 100 | 100 | 100 | 100 | 100 | 100 | 0 | 50 | 85 | 90 | 100 | Pigweed plant response rating (pigweed; [8]): 100; Plant response rating, Sedge, Umbrella (sedge, umbrella): 85; Velvetleaf plant response rating (velvetleaf [3]; [7]): 80; Velvetleaf plant response rating (velvetleaf [3]; [8]): 60
